Assay results published in PMC5548701, “Selective targeting of melanoma using N-(2-diethylaminoethyl) 4-[^18F]fluoroethoxy benzamide (4-[^18F]FEBZA): a novel PET imaging probe” (EJNMMI Research, 2017).
Where “and” joins values, the source holds several entries; their conditions need not be identical. Equal entries are not always repeated. Entries after “also recorded” stand apart in the source; their conditions may differ. Where two headings read alike, the source gives them in different places.

Key:
B16F1 cells [1] = experiment: homologous competitive binding assay on fixed B16F1 cells; set-up: species or system murine; details: homologous competition with unlabeled 4-FEBZA, 1 h
Method: After adding 0.1 nmol of 4-[^18F]FEBZA/well as the radioligand, unlabeled 4-FEBZA (2) was added to the quadruplicate sets of wells in concentrations ranging from 10^−11 to 10^−4 M and the plates were incubated for an hour at 37 °C under 5% CO2. At the end of the incubation, the media were removed, and the cells were washed with 500 μL of ice-cold media. The cells were lysed using 1 mL of phosphate-buffered saline containing 10% Triton X-100, and the lysates were collected in culture tubes to measure the radioactivity contents using a γ-counter. We performed a non-linear regression analysis of the decay-corrected CPM values to calculate the inhibition constant value (IC50), the concentration of competitor required to inhibit 50% of radiotracer binding, utilizing the GraphPad Prism software program (GraphPad Software, Inc., CA).

[2] = biodistribution in normal mice with no tumor implants; format: in vivo, C57BL/6 mice; details: 1 h
Method: (§1) The biodistribution studies were performed in mice bearing B16F1 (1 h n = 5; 2 h n = 6), C-32 (1 h n = 3; 2 h n = 3), and HT-29 (1 h n = 3; 2 h n = 3) tumor xenografts. The tumor-bearing mice were injected with ~40 μCi of 4-[^18F]FEBZA. A separate group of normal C57BL/6 mice with no tumor implants (1 h n = 3; 2 h n = 3) was also injected with ~40 μCi of 4-[^18F]FEBZA to study the distribution characteristics of 4-[^18F]FEBZA in the absence of tumors. At 1 h and 2 h post-injection, the mice were euthanized, and the tissues of interest were removed, rinsed with PBS, weighed, and counted for radioactivity contents using a γ-counter.

B16F1 cells [3] = experiment: internalization assay (acid wash); format: cell-based, murine; details: 37 °C
Method: Next, we evaluated the binding characteristics of 4-[^18F]FEBZA to B16F1 cells through internalization experiments. The cells were treated with a low pH buffer to sequester membrane-bound radioactivity (acid wash-releasable) from the internalized (acid wash-resistant) fraction. For this assay, 4-[^18F]FEBZA was added to 12-well plates with each well containing 4 × 10^5 B16F1cells/well (in quadruplicate), and the plates were incubated at 37 °C for 15, 30, 60, 120, and 180 min. After the incubation, the media were removed, each well was washed with ice-cold PBS (2 × 1 mL), and the washes were collected in the tubes. Subsequently, each well was gently treated with 1 mL of an ice-cold mildly acidic medium (sodium acetate buffer, pH 4.5) to remove surface-bound radioactivity, and the rinses were collected in tubes (acidic wash). The adherent cells were then lysed using 500 μL of 10% Triton X-100 in PBS, and the lysate was transferred into tubes. The total radioactivity in each of the lysate, acidic wash, and the PBS wash was measured using a γ-counter.

HT-29 tumor = experiment: microPET imaging in mouse bearing HT-29 tumor; format: in vivo, mice
Method: In vivo imaging of 4-[^18F]FEBZA in mice bearing B16F1 (n = 2) and HT-29 (n = 1) tumor was performed using a P4 microPET™ scanner (Concorde Microsystems, Inc., Knoxville, TN). After administering ~100 μCi of 4-[^18F]FEBZA via tail-vein injection, whole body PET scans were acquired in list mode. The images were reconstructed using filtered back projection with attenuation correction. Regions Of Interest (ROIs) were drawn on select organs using the summed image from the entire scan acquisition session, and the data were analyzed using ASIPro software (Siemens Preclinical Solutions, Knoxville, TN). The time activity curves (TACs) were generated from the list mode data reconstructed into multiple 5-min frames.

[4] = tested on: B16F1 melanoma tumor xenografts; experiment: biodistribution in mice bearing B16F1 tumor xenografts; format: in vivo, C57BL/6 mice; details: for tumor-to-brain tissue ratio: B16F1 group; for Adrenals %IA/g tissue (mean ± SD) / Blood %IA/g tissue (mean ± SD) / Bone %IA/g tissue (mean ± SD) / Brain %IA/g tissue (mean ± SD) / Heart %IA/g tissue (mean ± SD) / Kidneys %IA/g tissue (mean ± SD) / Liver %IA/g tissue (mean ± SD) / Lung %IA/g tissue (mean ± SD) / Muscles %IA/g tissue (mean ± SD) / Pancreas %IA/g tissue (mean ± SD) / Sm. Intestine %IA/g tissue (mean ± SD) / Spleen %IA/g tissue (mean ± SD): B16F1 tumor mice; for Tumor %IA/g tissue (mean ± SD): B16F1 tumor
Method: B16F1 melanoma cells, HT-29 human colorectal adenocarcinoma cells, and C-32 amelanotic melanoma cells were purchased from the American Type Culture Collection (ATCC, Rockville, MD). B16F1 murine melanotic melanoma cells were maintained in Dulbecco’s modified Eagles medium supplemented with 10% fetal calf-serum, 2 mM L-glutamine, and 1 mM pyruvate. HT-29 and C-32 cells were maintained in RPMI supplemented with 10% fetal calf serum and 2 mM L-glutamine. C57BL/6 and athymic nu/nu mice were purchased from Charles River Laboratories (Charles River Laboratories, Boston, MA). All animal studies were performed using an IACUC-approved protocol, and the work was performed under the guidelines established by Wake Forest University. The cells were grown to confluency, harvested, washed with phosphate-buffered saline and then were suspended in a 1:1 mixture of phosphate-buffered saline and Matrigel (BD Life Sciences, San Jose, CA) at a concentration of 5 × 10^6 cells/mL. For subcutaneous tumor xenografts, […] in the right flank with 100 μL of a suspension of B16F1 cells, and female athymic nu/nu mice were injected in the right flank with 100 μL of HT-29 cells or C-32 cells.
as §1

SMILES: CCN(CC)CCNC(=O)c1ccc(OCC[18F])cc1 [4-[^18F]FEBZA, N-(2-diethylaminoethyl) 4-[^18F]fluoroethoxybenzamide]
- IC50 (B16F1 cells [1]; read-out: IC50, first of two distinct binding sites): 0.0018 µM
- IC50 (B16F1 cells [1]; read-out: IC50, second of two distinct binding sites): 1.3 µM
- bone uptake ([2]; mice with no tumor): 3.23 ± 0.24 %IA/g
- blood uptake ([2]; mice without implanted tumor): 2.81 ± 0.31 %IA/g
- brain uptake ([2]; mice without implanted tumor): 2.46 ± 0.41 %IA/g
- liver uptake ([2]; mice without implanted tumor): 4.11 ± 0.63 %IA/g
- lungs uptake ([2]; mice without implanted tumor): 2.52 ± 0.47 %IA/g
- muscle uptake ([2]; mice without implanted tumor): 1.10 ± 0.13 %IA/g
- internalized fraction of cell-associated radioactivity (B16F1 cells [3]): Majority of the cell-associated radioactivity is internalized
- time at which internalized fraction reached plateau (B16F1 cells [3]): about 120 min
- cell surface bound fraction (B16F1 cells [3]; all time points (15-180 min)): < 1%
- standardized uptake value (SUV) of tumor from microPET images (HT-29 tumor): 0.25 ± 0.04
- visibility of tumor on microPET scans (HT-29 tumor): not visible; also recorded: not discernable
- tumor-to-brain tissue ratio ([4]; 1 h): 3.55 ± 0.80
- tumor-to-brain tissue ratio ([4]; 2 h): 3.45 ± 0.81
- tumor-to-muscle ratio ([4]; B16F1 mice group, 2 h): 6.64 ± 1.11
- Adrenals %IA/g tissue (mean ± SD) ([4]; 1 h post-injection): 1.10 ± 0.36 %IA/g tissue
- Blood %IA/g tissue (mean ± SD) ([4]; 1 h post-injection): 3.06 ± 0.52 %IA/g tissue
- Bone %IA/g tissue (mean ± SD) ([4]; 1 h post-injection): 3.78 ± 0.45 %IA/g tissue
- Brain %IA/g tissue (mean ± SD) ([4]; 1 h post-injection): 2.55 ± 0.61 %IA/g tissue
- Heart %IA/g tissue (mean ± SD) ([4]; 1 h post-injection): 2.82 ± 0.25 %IA/g tissue
- Kidneys %IA/g tissue (mean ± SD) ([4]; 1 h post-injection): 3.10 ± 0.28 %IA/g tissue
- Liver %IA/g tissue (mean ± SD) ([4]; 1 h post-injection): 3.25 ± 0.34 %IA/g tissue
- Lung %IA/g tissue (mean ± SD) ([4]; 1 h post-injection): 2.12 ± 0.17 %IA/g tissue
- Muscles %IA/g tissue (mean ± SD) ([4]; 1 h post-injection): 1.51 ± 0.21 %IA/g tissue
- Pancreas %IA/g tissue (mean ± SD) ([4]; 1 h post-injection): 2.48 ± 0.35 %IA/g tissue
- Sm. Intestine %IA/g tissue (mean ± SD) ([4]; 1 h post-injection): 2.48 ± 0.35 %IA/g tissue and 2.49 ± 0.25 %IA/g tissue
- Spleen %IA/g tissue (mean ± SD) ([4]; 1 h post-injection): 2.24 ± 0.36 %IA/g tissue
- Adrenals %IA/g tissue (mean ± SD) ([4]; 2 h post-injection): 0.88 ± 0.06 %IA/g tissue
- Blood %IA/g tissue (mean ± SD) ([4]; 2 h post-injection): 2.51 ± 0.93 %IA/g tissue
- Bone %IA/g tissue (mean ± SD) ([4]; 2 h post-injection): 5.45 ± 0.98 %IA/g tissue
- Brain %IA/g tissue (mean ± SD) ([4]; 2 h post-injection): 2.25 ± 0.50 %IA/g tissue
- Heart %IA/g tissue (mean ± SD) ([4]; 2 h post-injection): 2.12 ± 0.58 %IA/g tissue
- Kidneys %IA/g tissue (mean ± SD) ([4]; 2 h post-injection): 2.20 ± 0.38 %IA/g tissue
- Liver %IA/g tissue (mean ± SD) ([4]; 2 h post-injection): 2.28 ± 0.49 %IA/g tissue
- Lung %IA/g tissue (mean ± SD) ([4]; 2 h post-injection): 1.49 ± 0.49 %IA/g tissue
- Muscles %IA/g tissue (mean ± SD) ([4]; 2 h post-injection): 1.14 ± 0.21 %IA/g tissue
- Pancreas %IA/g tissue (mean ± SD) ([4]; 2 h post-injection): 1.73 ± 0.14 %IA/g tissue
- Sm. Intestine %IA/g tissue (mean ± SD) ([4]; 2 h post-injection): 1.60 ± 0.31 %IA/g tissue
- Spleen %IA/g tissue (mean ± SD) ([4]; 2 h post-injection): 1.58 ± 0.18 %IA/g tissue
- Tumor %IA/g tissue (mean ± SD) ([4]; 1 h post-injection): 8.66 ± 1.02 %IA/g tissue
- Tumor %IA/g tissue (mean ± SD) ([4]; 2 h post-injection): 7.47 ± 1.34 %IA/g tissue
